{"source": "patent US10369185B2", "about": "“Methods and compositions for enhancement of ability to concentrate” (KYOWA HAKKO BIO CO., LTD., priority 2014, dated 2019)", "key": {"[1]": {"details": "alanylglutamine compared to glutamine; cited from earlier work"}, "[2]": {"test_system": "male runners", "assay": "Multiple object tracking (CAVE, NeuroTracker)", "assay_type": "in vivo, human", "details": "for NeuroTracker Δ, group mean: Post-Pre", "method": "The testing protocol is depicted in FIG. 1. Data collection occurred on four separate occasions. Each session required participants to perform a 60-min run at 75% of their previously measured VO2max. Following this run, all participants performed a run at 90% of their VO2max until volitional exhaustion. All participants performed their first trial (DHY) without any rehydration. During this session the total weight lost during the trial was determined. The fluid loss that occurred during this session was then used to determine the participant's swear rate (L·hr^−1). To continue in the study, participant's sweat rate was or exceeded 1.3 L·hr^−1. During the next three trails participants were provided 250 ml of fluid every 15 minutes in equal amounts. During one of the trials participants consumed only a flavored sports drink (ELECT only), while during the other trials participants consumed the alanine-glutamine supplement (Sustamine™) mixed in the same flavored sports drink at either a low (LD: 300 mg per 500 ml) or high (HD: 1 g per 500 ml) dose. Visual optical tracking was assessed using a Cave Automatic Virtual Environment (CAVE) system. The CAVE is a 2.4 m×2.4 m×2.4 m room that includes a frontal canvas projection wall which served as surfaces for image projection. Four high-resolution projectors were synchronized, and the image was projected onto the front screen. Participants tracked 4 of 8 objects that moved in a three-dimensional plane. Velocity of movement began at a slow tracking speed and progressed on the performance of the individual participant. Each participant performed 10 trials. During each trial participants wore 3-dimensional glasses. The velocity of movement that was most successful was recorded. Additionally, to make inferences on true effects of the different trials on reaction performance, an analysis based on the magnitude of differences, calculated from 90% confidence intervals, as previously described by Batterham and Hopkins (2005), was used in this study. Differences in Post-Pre performance (Δresponse) between trials were analyzed via a published spreadsheet (Hopkins 2007), with the smallest non-trivial change set at 20% of the grand standard deviation (Batterham and Hopkins 2005). All data are expressed as a mean effect±SD, with percent chances of a beneficial, trivial or negative outcome. Qualitative inferences, based on quantitative chances were assessed as: <1% almost certainly not, 1-5% very unlikely, 5-25% unlikely, 25-75% possibly, 75-95% likely, 95-99% very likely and >99% almost certainly (Hopkins 2002)."}, "[3]": {"test_system": "male runners", "assay": "Lower body reaction, 20-second Quick Board test", "assay_type": "in vivo, human", "details": "for QuickBoard Hit Δ, group mean: Post-Pre; for changes in lower body reaction (Quick Board): LD and HD, no significant differences between groups", "method": "The testing protocol is depicted in FIG. 1. Data collection occurred on four separate occasions. Each session required participants to perform a 60-min run at 75% of their previously measured VO2max. Following this run, all participants performed a run at 90% of their VO2max until volitional exhaustion. All participants performed their first trial (DHY) without any rehydration. During this session the total weight lost during the trial was determined. The fluid loss that occurred during this session was then used to determine the participant's swear rate (L·hr^−1). To continue in the study, participant's sweat rate was or exceeded 1.3 L·hr^−1. During the next three trails participants were provided 250 ml of fluid every 15 minutes in equal amounts. During one of the trials participants consumed only a flavored sports drink (ELECT only), while during the other trials participants consumed the alanine-glutamine supplement (Sustamine™) mixed in the same flavored sports drink at either a low (LD: 300 mg per 500 ml) or high (HD: 1 g per 500 ml) dose. A Lower body reaction time was assessed by a 20-second reaction test on the Quick Board™ (The Quick Board, LLC, Memphis, Tenn.) reaction timer (QB). Participants stood on a board of five circles, in a 2×1×2 pattern. The participant straddled the middle circle and reacted to a visual stimulus located on a display box that depicted one of five potential lights that corresponded with the circles on the board. Upon activation of the light, the participant attempted to move the foot closest to the circle that corresponded to the visual stimulus. Upon a successful connection the next stimulus appeared. The total number of successful attempts for the 20-second test and the average time between the activation of the light and the response to the corresponding circle were recorded. Additionally, to make inferences on true effects of the different trials on reaction performance, an analysis based on the magnitude of differences, calculated from 90% confidence intervals, as previously described by Batterham and Hopkins (2005), was used in this study. Differences in Post-Pre performance (Δresponse) between trials were analyzed via a published spreadsheet (Hopkins 2007), with the smallest non-trivial change set at 20% of the grand standard deviation (Batterham and Hopkins 2005). All data are expressed as a mean effect±SD, with percent chances of a beneficial, trivial or negative outcome. Qualitative inferences, based on quantitative chances were assessed as: <1% almost certainly not, 1-5% very unlikely, 5-25% unlikely, 25-75% possibly, 75-95% likely, 95-99% very likely and >99% almost certainly (Hopkins 2002)."}, "[4]": {"details": "in vivo; cited from earlier work"}}, "note": "Entries after “also recorded” stand apart in the source; their conditions may differ. Peptide text beside a SMILES is read from it."}
{"smiles": "C[C@H](N)C(=O)N[C@@H](CCC(N)=O)C(=O)O", "note": "[L-Alanyl-L-Glutamine] (H-Ala-Gln-OH)", "values": [{"measurement": "solubility in aqueous solutions", "setting": "[1]", "result": "superior"}, {"measurement": "stability (heat stability)", "setting": "[1]", "result": "superior"}, {"measurement": "NeuroTracker Δ, Interpretation", "setting": "[2]; Dehydration vs High Dose", "result": "Unclear"}, {"measurement": "NeuroTracker Δ, Mean Difference", "setting": "[2]; Dehydration vs High Dose", "result": "−0.06"}, {"measurement": "NeuroTracker Δ, Percent Negative", "setting": "[2]; Dehydration vs High Dose", "result": 37.20, "unit": "%"}, {"measurement": "NeuroTracker Δ, Percent Positive", "setting": "[2]; Dehydration vs High Dose", "result": 12.32, "unit": "%"}, {"measurement": "NeuroTracker Δ, Percent Trivial", "setting": "[2]; Dehydration vs High Dose", "result": 50.47, "unit": "%"}, {"measurement": "NeuroTracker Δ, Interpretation", "setting": "[2]; Dehydration vs Low Dose", "result": "Unclear"}, {"measurement": "NeuroTracker Δ, Mean Difference", "setting": "[2]; Dehydration vs Low Dose", "result": 0.008}, {"measurement": "NeuroTracker Δ, Percent Negative", "setting": "[2]; Dehydration vs Low Dose", "result": 21.19, "unit": "%"}, {"measurement": "NeuroTracker Δ, Percent Positive", "setting": "[2]; Dehydration vs Low Dose", "result": 24.48, "unit": "%"}, {"measurement": "NeuroTracker Δ, Percent Trivial", "setting": "[2]; Dehydration vs Low Dose", "result": 54.33, "unit": "%"}, {"measurement": "NeuroTracker Δ, Interpretation", "setting": "[2]; Gatorade vs High Dose", "result": "likely maintain or improve their scores more so than when they consumed the electrolyte drink only; also recorded: Likely"}, {"measurement": "NeuroTracker Δ, Mean Difference", "setting": "[2]; Gatorade vs High Dose", "result": "−0.23"}, {"measurement": "NeuroTracker Δ, Percent Negative", "setting": "[2]; Gatorade vs High Dose", "result": 85.10, "unit": "%"}, {"measurement": "NeuroTracker Δ, Percent Positive", "setting": "[2]; Gatorade vs High Dose", "result": 0.44, "unit": "%"}, {"measurement": "NeuroTracker Δ, Percent Trivial", "setting": "[2]; Gatorade vs High Dose", "result": 14.46, "unit": "%"}, {"measurement": "NeuroTracker Δ, group mean", "setting": "[2]; High Dose (1 g per 500 ml)", "result": 0.201}, {"measurement": "NeuroTracker Δ, group mean", "setting": "[2]; Low Dose (300 mg per 500 ml)", "result": 0.132}, {"measurement": "NeuroTracker Δ, Interpretation", "setting": "[2]; Low Dose vs Gatorade", "result": "Possibly"}, {"measurement": "NeuroTracker Δ, Mean Difference", "setting": "[2]; Low Dose vs Gatorade", "result": 0.17}, {"measurement": "NeuroTracker Δ, Percent Negative", "setting": "[2]; Low Dose vs Gatorade", "result": 4.42, "unit": "%"}, {"measurement": "NeuroTracker Δ, Percent Positive", "setting": "[2]; Low Dose vs Gatorade", "result": 64.40, "unit": "%"}, {"measurement": "NeuroTracker Δ, Percent Trivial", "setting": "[2]; Low Dose vs Gatorade", "result": 31.18, "unit": "%"}, {"measurement": "NeuroTracker Δ, Interpretation", "setting": "[2]; Low Dose vs High Dose", "result": "Possibly"}, {"measurement": "NeuroTracker Δ, Mean Difference", "setting": "[2]; Low Dose vs High Dose", "result": 0.069}, {"measurement": "NeuroTracker Δ, Percent Negative", "setting": "[2]; Low Dose vs High Dose", "result": 26.72, "unit": "%"}, {"measurement": "NeuroTracker Δ, Percent Positive", "setting": "[2]; Low Dose vs High Dose", "result": 0.45, "unit": "%"}, {"measurement": "NeuroTracker Δ, Percent Trivial", "setting": "[2]; Low Dose vs High Dose", "result": 72.83, "unit": "%"}, {"measurement": "changes in multiple object tracking", "setting": "[2]; between trials", "result": "No significant differences were noted between trials"}, {"measurement": "QuickBoard Hit Δ, Interpretation", "setting": "[3]; Dehydration vs High Dose", "result": "likely lower"}, {"measurement": "QuickBoard Hit Δ, Mean Difference", "setting": "[3]; Dehydration vs High Dose", "result": "−2.6"}, {"measurement": "QuickBoard Hit Δ, Percent Negative", "setting": "[3]; Dehydration vs High Dose", "result": 90.99, "unit": "%"}, {"measurement": "QuickBoard Hit Δ, Percent Positive", "setting": "[3]; Dehydration vs High Dose", "result": 1.92, "unit": "%"}, {"measurement": "QuickBoard Hit Δ, Percent Trivial", "setting": "[3]; Dehydration vs High Dose", "result": 7.10, "unit": "%"}, {"measurement": "QuickBoard Hit Δ, Interpretation", "setting": "[3]; Dehydration vs Low Dose", "result": "likely lower"}, {"measurement": "QuickBoard Hit Δ, Mean Difference", "setting": "[3]; Dehydration vs Low Dose", "result": "−2.2"}, {"measurement": "QuickBoard Hit Δ, Percent Negative", "setting": "[3]; Dehydration vs Low Dose", "result": 88.90, "unit": "%"}, {"measurement": "QuickBoard Hit Δ, Percent Positive", "setting": "[3]; Dehydration vs Low Dose", "result": 1.93, "unit": "%"}, {"measurement": "QuickBoard Hit Δ, Percent Trivial", "setting": "[3]; Dehydration vs Low Dose", "result": 9.16, "unit": "%"}, {"measurement": "QuickBoard Hit Δ, Interpretation", "setting": "[3]; Gatorade vs High Dose", "result": "Unclear"}, {"measurement": "QuickBoard Hit Δ, Mean Difference", "setting": "[3]; Gatorade vs High Dose", "result": "−1.7"}, {"measurement": "QuickBoard Hit Δ, Percent Negative", "setting": "[3]; Gatorade vs High Dose", "result": 73.53, "unit": "%"}, {"measurement": "QuickBoard Hit Δ, Percent Positive", "setting": "[3]; Gatorade vs High Dose", "result": 9.72, "unit": "%"}, {"measurement": "QuickBoard Hit Δ, Percent Trivial", "setting": "[3]; Gatorade vs High Dose", "result": 16.75, "unit": "%"}, {"measurement": "QuickBoard Hit Δ, group mean", "setting": "[3]; High Dose (1 g per 500 ml)", "result": 1.17}, {"measurement": "changes in lower body reaction (Quick Board)", "setting": "[3]", "result": "performance appeared to improve in LD and HD"}, {"measurement": "changes in lower body reaction (Quick Board)", "setting": "[3]; listed as L-alanyl-L-glutamine", "result": "Performance appeared to improve"}, {"measurement": "QuickBoard Hit Δ, group mean", "setting": "[3]; Low Dose (300 mg per 500 ml)", "result": 0.75}, {"measurement": "QuickBoard Hit Δ, Interpretation", "setting": "[3]; Low Dose vs Gatorade", "result": "Unclear"}, {"measurement": "QuickBoard Hit Δ, Mean Difference", "setting": "[3]; Low Dose vs Gatorade", "result": 1.3}, {"measurement": "QuickBoard Hit Δ, Percent Negative", "setting": "[3]; Low Dose vs Gatorade", "result": 17.75, "unit": "%"}, {"measurement": "QuickBoard Hit Δ, Percent Positive", "setting": "[3]; Low Dose vs Gatorade", "result": 63.09, "unit": "%"}, {"measurement": "QuickBoard Hit Δ, Percent Trivial", "setting": "[3]; Low Dose vs Gatorade", "result": 19.15, "unit": "%"}, {"measurement": "QuickBoard Hit Δ, Interpretation", "setting": "[3]; Low Dose vs High Dose", "result": "trivial; also recorded: Possibly"}, {"measurement": "QuickBoard Hit Δ, Mean Difference", "setting": "[3]; Low Dose vs High Dose", "result": 0.42}, {"measurement": "QuickBoard Hit Δ, Percent Negative", "setting": "[3]; Low Dose vs High Dose", "result": 29.69, "unit": "%"}, {"measurement": "QuickBoard Hit Δ, Percent Positive", "setting": "[3]; Low Dose vs High Dose", "result": 0.19, "unit": "%"}, {"measurement": "QuickBoard Hit Δ, Percent Trivial", "setting": "[3]; Low Dose vs High Dose", "result": 70.12, "unit": "%"}, {"measurement": "degradation in the body", "setting": "[4]", "result": "immediately degraded into alanine and glutamine in the body"}]}
